Measured values published in patent publication US20260015358A1, “BICYCLIC DERIVATIVES, COMPOSITIONS AND USES THEREOF” (Danatlas Pharmaceuticals Co., Ltd., priority 2023, published 2026).

The compounds below were run against WRN [UniPro: Q14191 (WRN_HUMAN), N500-C946] (Homo sapiens (Human), UniProt Q14191) (assay: WRN unwinding assay (FORKF DNA, fluorescence)). Settings: Table 14.
Assay type: biochemical
Protocol: WRN unwinding assay was initiated to evaluate potential inhibitory effect of compounds for WEN helicase activity. WRN [UniPro: Q14191 (WRN_HUMAN), N500-C946] was expressed and purified in insect system and stored at −80° C. in aliquots. […] Compounds dissolved in DMSO (Sigma, D8418) were plated into a 96-well intermediate plate (BioFil, VWP-032-096) for 3-fold serial titration for 10 points using DMSO, and well-to-well transfer the titrated compounds into another 96-well intermediate plate including assay buffer in advance. Shake the 96-well intermediate plate at 600 rpm for 10 min. to fully mix. Specifically, a 3× working mixture of WRN was diluted to a concentration of 60 nM in assay buffer. […] After centrifuging at 1000 rpm and shaking at 500 rpm, the assay plate was pre-incubated for 30 min. Then, […] 3×FORKF DNA and ATP working mixture was dispensed into assay plate. Plate was sealed, centrifuged and incubated for an additional 40 min. at 25° C. […] Each concentration of compound was tested in duplicates in the assay plate. Average fluorescence signal of high control (Wells with 1% DMSO) was calculated as High Control (HC). Average fluorescence signal of low control (Wells with no WRN protein) was calculated as Low control (LC).
IC50 values were determined by fitting the data to the standard 4 parameters with Hill Slope using GraphPad Prism software.

Chain of WRN [UniPro: Q14191 (WRN_HUMAN), N500-C946] (Q14191 500-946): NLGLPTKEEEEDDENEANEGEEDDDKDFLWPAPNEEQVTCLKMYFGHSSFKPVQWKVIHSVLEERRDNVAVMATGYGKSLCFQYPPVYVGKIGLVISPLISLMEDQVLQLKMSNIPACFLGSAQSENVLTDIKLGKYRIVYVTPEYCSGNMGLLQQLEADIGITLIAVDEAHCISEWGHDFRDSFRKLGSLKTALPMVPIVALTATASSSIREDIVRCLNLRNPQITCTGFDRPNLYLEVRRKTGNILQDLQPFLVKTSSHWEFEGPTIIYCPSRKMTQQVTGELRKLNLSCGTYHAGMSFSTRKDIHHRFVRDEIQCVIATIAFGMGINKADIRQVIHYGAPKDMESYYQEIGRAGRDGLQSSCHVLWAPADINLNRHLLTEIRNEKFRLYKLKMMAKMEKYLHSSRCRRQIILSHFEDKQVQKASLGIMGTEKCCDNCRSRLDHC

| IC50 | SMILES |
| --- | --- |
| > 1000 nM | CCc1c(N2CCN(C(=O)CNC(=O)c3ccccc3F)CC2)c(=O)n2nc(OCCOC)nc2n1CC(=O)Nc1ccc(C(F)(F)F)cc1Cl [Example 240, N-(2-(4-(4-(2-((2-Chloro-4-(trifluoromethyl)phenyl)amino)-2-oxoethyl)-5-ethyl-2-(2-methoxyethoxy)-7-oxo-4,7-dihydro-[1,2,4]triazolo[1,5-a]pyrimidin-6-yl)piperazin-1-yl)-2-oxoethyl)-2-fluorobenzamide] |
| 100 to 1000 nM | CCc1c(N2CCN(C(=O)CNC(=O)c3ccccc3F)CC2)c(=O)n2nc(C3=CCOCC3)nc2n1CC(=O)Nc1ncc(C(F)(F)F)s1 [Example 158, N-(2-(4-(2-(3,6-Dihydro-2H-pyran-4-yl)-5-ethyl-7-oxo-4-(2-oxo-2-((5-(trifluoromethyl)thiazol-2-yl)amino)ethyl)-4,7-dihydro-[1,2,4]triazolo[1,5-a]pyrimidin-6-yl)piperazin-1-yl)-2-oxoethyl)-2-fluorobenzamide] |
| > 1000 nM | CCc1c(N2CCN(C(=O)N(C)C)CC2)c(=O)n2nc(C3=CCOCC3)nc2n1CC(=O)Nc1ccc(C(F)(F)F)cc1Cl [Example 10, 4-(4-(2-((2-Chloro-4-(trifluoromethyl)phenyl)amino)-2-oxoethyl)-2-(3,6-dihydro-2H-pyran-4-yl)-5-ethyl-7-oxo-4,7-dihydro-[1,2,4]triazolo[1,5-a]pyrimidin-6-yl)-N,N-dimethylpiperazine-1-carboxamide] |
| 100 to 1000 nM | CCc1c(N2CCN(C(=O)c3[nH]c(=O)oc3C(F)(F)F)CC2)c(=O)n2nc(C3=CCOCC3)nc2n1CC(=O)Nc1ccc(C(F)(F)F)cc1Cl [Example 317, N-(2-Chloro-4-(trifluoromethyl)phenyl)-2-(2-(3,6-dihydro-2H-pyran-4-yl)-5-ethyl-7-oxo-6-(4-(2-oxo-5-(trifluoromethyl)-2,3-dihydrooxazole-4-carbonyl)piperazin-1-yl)-[1,2,4]triazolo[1,5-a]pyrimidin-4(7H)-yl)acetamide] |
| 100 to 1000 nM | CCc1c(N2CCN(C(=O)CNC(=O)c3ccc(Cl)cc3Cl)CC2)c(=O)n2nc(C3=CCOCC3)nc2n1CC(=O)Nc1ccc(C(F)(F)F)cc1Cl [Example 127, 2,4-Dichloro-N-(2-(4-(4-(2-((2-chloro-4-(trifluoromethyl)phenyl)amino)-2-oxoethyl)-2-(3,6-dihydro-2H-pyran-4-yl)-5-ethyl-7-oxo-4,7-dihydro-[1,2,4]triazolo[1,5-a]pyrimidin-6-yl)piperazin-1-yl)-2-oxoethyl)benzamide] |
| 100 to 1000 nM | CCNC(=O)N1CCN(c2c(CC)n(CC(=O)Nc3ccc(C(F)(F)F)cc3Cl)c3nc(C4=CCOCC4)nn3c2=O)CC1 [Example 15, 4-(4-(2-((2-Chloro-4-(trifluoromethyl)phenyl)amino)-2-oxoethyl)-2-(3,6-dihydro-2H-pyran-4-yl)-5-ethyl-7-oxo-4,7-dihydro-[1,2,4]triazolo[1,5-a]pyrimidin-6-yl)-N-ethylpiperazine-1-carboxamide] |
| 100 to 1000 nM | CCc1c(N2CCN(C(=O)CNC(=O)c3ccccc3F)CC2)c(=O)n2nc(C3=CCOCC3)nc2n1CC(=O)Nc1sc(C)cc1Cl [Example 151, N-(2-(4-(4-(2-((3-chloro-5-methylthiophen-2-yl)amino)-2-oxoethyl)-2-(3,6-dihydro-2H-pyran-4-yl)-5-ethyl-7-oxo-4,7-dihydro-[1,2,4]triazolo[1,5-a]pyrimidin-6-yl)piperazin-1-yl)-2-oxoethyl)-2-fluorobenzamide] |
| 100 to 1000 nM | CCc1c(N2CCN(C(=O)c3cc4c(OC)ccnc4[nH]3)CC2)c(=O)n2nc(C3=CCOCC3)nc2n1CC(=O)Nc1ccc(C(F)(F)F)cc1Cl [Example 302, N-(2-Chloro-4-(trifluoromethyl)phenyl)-2-(2-(3,6-dihydro-2H-pyran-4-yl)-5-ethyl-6-(4-(4-methoxy-1H-pyrrolo[2,3-b]pyridine-2-carbonyl)piperazin-1-yl)-7-oxo-[1,2,4]triazolo[1,5-a]pyrimidin-4(7H)-yl)acetamide] |
| 100 to 1000 nM | CCc1c(N2CCN(C(=O)CCO)CC2)c(=O)n2nc(C3=CCOCC3)nc2n1CC(=O)Nc1ccc(C(F)(F)F)cc1Cl [Example 16, N-(2-Chloro-4-(trifluoromethyl)phenyl)-2-(2-(3,6-dihydro-2H-pyran-4-yl)-5-ethyl-6-(4-(3-hydroxypropanoyl)piperazin-1-yl)-7-oxo-[1,2,4]triazolo[1,5-a]pyrimidin-4(7H)-yl)acetamide] |
| 100 to 1000 nM | CCc1c(N2CCN(C(=O)CNC(=O)c3ccccc3F)CC2)c(=O)n2nc(N3CC(C#N)C3)nc2n1CC(=O)Nc1ccc(C(F)(F)F)cc1Cl [Example 243, N-(2-(4-(4-(2-((2-Chloro-4-(trifluoromethyl)phenyl)amino)-2-oxoethyl)-2-(3-cyanoazetidin-1-yl)-5-ethyl-7-oxo-4,7-dihydro-[1,2,4]triazolo[1,5-a]pyrimidin-6-yl)piperazin-1-yl)-2-oxoethyl)-2-fluorobenzamide] |
| 100 to 1000 nM | CCc1c(N2CCN(C(=O)CNC(=O)c3ccccc3F)CC2)c(=O)n2nc(N3CC(OC)C3)nc2n1CC(=O)Nc1ccc(C(F)(F)F)cc1Cl [Example 242, N-(2-(4-(4-(2-((2-Chloro-4-(trifluoromethyl)phenyl)amino)-2-oxoethyl)-5-ethyl-2-(3-methoxyazetidin-1-yl)-7-oxo-4,7-dihydro-[1,2,4]triazolo[1,5-a]pyrimidin-6-yl)piperazin-1-yl)-2-oxoethyl)-2-fluorobenzamide] |
| 100 to 1000 nM | CCc1c(N2CCN(C(=O)CN)CC2)c(=O)n2nc(C3=CCOCC3)nc2n1CC(=O)Nc1ccc(C(F)(F)F)cc1Cl [Example 38, N-(2-Chloro-4-(trifluoromethyl)phenyl)-2-(2-(3,6-dihydro-2H-pyran-4-yl)-5-ethyl-6-(4-glycylpiperazin-1-yl)-7-oxo-[1,2,4]triazolo[1,5-a]pyrimidin-4(7H)-yl)acetamide] |
| 100 to 1000 nM | CCc1c(N2CCN(C(=O)CNC(=O)CN3CCCC3)CC2)c(=O)n2nc(C3=CCOCC3)nc2n1CC(=O)Nc1ccc(C(F)(F)F)cc1Cl [Example 339, N-(2-Chloro-4-(trifluoromethyl)phenyl)-2-(2-(3,6-dihydro-2H-pyran-4-yl)-5-ethyl-7-oxo-6-(4-((2-(pyrrolidin-1-yl)acetyl)glycyl)piperazin-1-yl)-[1,2,4]triazolo[1,5-a]pyrimidin-4(7H)-yl)acetamide] |
| > 1000 nM | CCc1c(N2CCN(C(=O)C(C)(C)NC(=O)c3ccccc3)CC2)c(=O)n2nc(C3=CCOCC3)nc2n1CC(=O)Nc1ccc(C(F)(F)F)cc1Cl [Example 137, N-(1-(4-(4-(2-((2-Chloro-4-(trifluoromethyl)phenyl)amino)-2-oxoethyl)-2-(3,6-dihydro-2H-pyran-4-yl)-5-ethyl-7-oxo-4,7-dihydro-[1,2,4]triazolo[1,5-a]pyrimidin-6-yl)piperazin-1-yl)-2-methyl-1-oxopropan-2-yl)benzamide] |
| 100 to 1000 nM | CCc1c(N2CCN(C(=O)c3nnc(-c4ccccc4F)[nH]3)CC2)c(=O)n2nc(C3=CCOCC3)nc2n1CC(=O)Nc1ccc(C(F)(F)F)cc1F [Example 309, 2-(2-(3,6-Dihydro-2H-pyran-4-yl)-5-ethyl-6-(4-(5-(2-fluorophenyl)-4H-1,2,4-triazole-3-carbonyl)piperazin-1-yl)-7-oxo-[1,2,4]triazolo[1,5-a]pyrimidin-4(7H)-yl)-N-(2-fluoro-4-(trifluoromethyl)phenyl)acetamide] |
| 100 to 1000 nM | CCc1c(N2CCN(C(=O)c3c[nH]c(=O)[nH]3)CC2)c(=O)n2nc(C3=CCOCC3)nc2n1CC(=O)Nc1ccc(C(F)(F)F)cc1Cl [Example 316, N-(2-Chloro-4-(trifluoromethyl)phenyl)-2-(2-(3,6-dihydro-2H-pyran-4-yl)-5-ethyl-7-oxo-6-(4-(2-oxo-2,3-dihydro-1H-imidazole-4-carbonyl)piperazin-1-yl)-[1,2,4]triazolo[1,5-a]pyrimidin-4(7H)-yl)acetamide] |
| 100 to 1000 nM | CCc1c(N2CCN(C(=O)CNC(=O)c3cccc(Cl)c3)CC2)c(=O)n2nc(C3=CCOCC3)nc2n1CC(=O)Nc1ccc(C(F)(F)F)cc1Cl [Example 175, 3-Chloro-N-(2-(4-(4-(2-((2-chloro-4-(trifluoromethyl)phenyl)amino)-2-oxoethyl)-2-(3,6-dihydro-2H-pyran-4-yl)-5-ethyl-7-oxo-4,7-dihydro-[1,2,4]triazolo[1,5-a]pyrimidin-6-yl)piperazin-1-yl)-2-oxoethyl)benzamide] |
| 100 to 1000 nM | CCc1c(N2CCN(C(=O)CNC(=O)c3c(O)cccc3F)CC2)c(=O)n2nc(C3=CCOCC3)nc2n1CC(=O)Nc1ccc(C(F)(F)F)cc1Cl [Example 294, N-(2-(4-(4-(2-((2-Chloro-4-(trifluoromethyl)phenyl)amino)-2-oxoethyl)-2-(3,6-dihydro-2H-pyran-4-yl)-5-ethyl-7-oxo-4,7-dihydro-[1,2,4]triazolo[1,5-a]pyrimidin-6-yl)piperazin-1-yl)-2-oxoethyl)-2-fluoro-6-hydroxybenzamide] |
| > 1000 nM | CCc1c(N2CCN(C(=O)Nc3c(C(F)(F)F)ncn3Cc3ccc(OC)cc3)CC2)c(=O)n2nc(C3=CCOCC3)nc2n1CC(=O)Nc1ccc(C(F)(F)F)cc1Cl [Example 26, 4-(4-(2-((2-Chloro-4-(trifluoromethyl)phenyl)amino)-2-oxoethyl)-2-(3,6-dihydro-2H-pyran-4-yl)-5-ethyl-7-oxo-4,7-dihydro-[1,2,4]triazolo[1,5-a]pyrimidin-6-yl)-N-(1-(4-methoxybenzyl)-4-(trifluoromethyl)-1H-imidazol-5-yl)piperazine-1-carboxamide] |
